Measurements as given in patent US20200270647A1, “TRANSGENIC STRAIN FOR PRODUCING SUCCINATE AND METHOD FOR PRODUCING SUCCINATE” (NATIONAL CHIAO TUNG UNIVERSITY, priority 2019, published 2020).

Test system: PCC7942 cyanobacterium strain
Method: The bacterium amount (cell amount) was monitored by measuring the optical density (OD) of the culture medium at a wavelength of 730 nm using the Biotek epoch 2 microplate spectrophotometer. The OD730 is calculated based on a recalibration of an optical path length 1 cm.

O=C([O-])CCC(=O)[O-].[Na+].[Na+] [disodium succinate]
growth inhibition effect on the cyanobacterium strain (wild-type PCC7942 in BG-11, different concentrations, cell density observed for three days, versus sodium chloride with same sodium concentration): almost equivalent to the growth inhibition effect of sodium chloride

O=C(O)CCC(=O)O [succinate]
toxicity to the growth or persistence of the cyanobacterium strain: not toxic
